According to ChEMBL document CHEMBL3045306, “Ultrasound-promoted synthesis, biological evaluation and molecular docking of novel 7-(2-chloroquinolin-4-yloxy)-4-methyl-2H-chromen-2-one derivatives” (2013):
In brackets after ≈: the same amount, converted by molar mass.

How the values were obtained:
Type in all cases: functional
[1] = tested on: Radical scavenging activity; assay: Antioxidant activity assessed as inhibition of DPPH radical formation at 1000 ug after 30 mis UV-Vis spectrophotometric analysis
[2] = tested on: Radical scavenging activity; assay: Antioxidant activity assessed as inhibition of DPPH radical formation at 500 ug after 30 mis UV-Vis spectrophotometric analysis
[3] = tested on: Radical scavenging activity; assay: Antioxidant activity assessed as inhibition of DPPH radical formation at 100 ug after 30 mis UV-Vis spectrophotometric analysis
[4] = tested on: Radical scavenging activity; assay: Antioxidant activity assessed as inhibition of DPPH radical formation at 50 ug after 30 mis UV-Vis spectrophotometric analysis
Bacillus subtilis = assay: Antibacterial activity against Bacillus subtilis assessed as growth inhibition
Pseudomonas aeruginosa = assay: Antibacterial activity against Pseudomonas aeruginosa assessed as growth inhibition
Escherichia coli = assay: Antibacterial activity against Escherichia coli assessed as growth inhibition
Staphylococcus aureus = assay: Antibacterial activity against Staphylococcus aureus assessed as growth inhibition
Meloidogyne = assay: Nematicidal activity against Meloidogyne litoralis assessed as growth inhibition

Row | Compound | MIC (Pseudomonas aeruginosa) | MIC (Escherichia coli) | MIC (Staphylococcus aureus) | inhibition [1] | inhibition [2] | inhibition [3] | inhibition [4] | MIC (Bacillus subtilis) | MIC (Meloidogyne)
1 | Cc1cc(=O)oc2cc(Oc3cc(Cl)nc4c3ccc3ccccc34)ccc12 | 6.25 µg/mL (≈ 16.1 µM) | 6.25 µg/mL (≈ 16.1 µM) | 50 µg/mL (≈ 129 µM) | 67% | 40% | 15% | 14% |  | 
2 | Cc1cc(C(C)(C)C)c(O)c(C(C)(C)C)c1 |  |  |  | 98% | 96% | 94% | 93% |  | 
3 | Cc1cc(=O)oc2cc(Oc3cc(Cl)nc4c(C)cccc34)ccc12 |  | 6.25 µg/mL (≈ 17.8 µM) |  | 68% | 45% | 14% | 12% |  | 100 µg/mL (≈ 284 µM)
4 | CN[C@@H]1[C@H](O[C@H]2[C@H](O[C@H]3[C@H](O)[C@@H](O)[C@H](N=C(N)N)[C@@H](O)[C@@H]3N=C(N)N)O[C@@H](C)[C@]2(O)C=O)O[C@@H](CO)[C@H](O)[C@H]1O [STREPTOMYCIN] | 12.5 µg/mL (≈ 21.5 µM) | 6.25 µg/mL (≈ 10.7 µM) | 25 µg/mL (≈ 43 µM) |  |  |  |  | 12.5 µg/mL (≈ 21.5 µM) | 6.25 µg/mL (≈ 10.7 µM)

More lines, main results first:

Row | MIC (Pseudomonas aeruginosa) | MIC (Escherichia coli) | MIC (Staphylococcus aureus) | Compound | inhibition [1] | inhibition [2] | inhibition [3] | inhibition [4] | MIC (Bacillus subtilis) | MIC (Meloidogyne)
5 | 6.25 µg/mL (≈ 17 µM) | 6.25 µg/mL (≈ 17 µM) |  | COc1cccc2c(Oc3ccc4c(C)cc(=O)oc4c3)cc(Cl)nc12 | 69% | 38% | 11% | 8% | 100 µg/mL (≈ 272 µM) | 
6 | 100 µg/mL (≈ 284 µM) | 12.5 µg/mL (≈ 35.5 µM) | 12.5 µg/mL (≈ 35.5 µM) | Cc1ccc2nc(Cl)cc(Oc3ccc4c(C)cc(=O)oc4c3)c2c1 | 69% | 57% | 20% | 19% |  | 
7 | 12.5 µg/mL (≈ 37 µM) | 100 µg/mL (≈ 296 µM) | 50 µg/mL (≈ 148 µM) | Cc1cc(=O)oc2cc(Oc3cc(Cl)nc4ccccc34)ccc12 | 78% | 53% | 23% | 21% |  | 100 µg/mL (≈ 296 µM)
8 | 12.5 µg/mL (≈ 35.5 µM) |  |  | Cc1ccc2c(Oc3ccc4c(C)cc(=O)oc4c3)cc(Cl)nc2c1 | 65% | 35% | 11% | 10% |  | 
9 | 50 µg/mL (≈ 120 µM) |  |  | Cc1cc(=O)oc2cc(Oc3cc(Cl)nc4ccc(Br)cc34)ccc12 | 76% | 54% | 26% | 24% |  | 6.25 µg/mL (≈ 15 µM)
